Laboratory results from patent US7173063B1, “Topoisomerase poisons for the treatment of proliferative disorders” (Fred Hutchinson Cancer Research Center, priority 2000, dated 2007).
Like-named read-outs stand apart in the source and are kept apart here.

Tests used:
[1] = tested on: DSB repair defective rad50 and rad52 strains of Saccharomyces cerevisiae; type: cell-based; conditions: for toxicity in wild-type strains: highest concentration used
Description: (§1) The strains are derived from the A364a genetic background, with the exception of BY4705, which is derived from the S288C background. Gene disruptions were generated by PCR fragment directed replacement (Baudin, et al., Nucleic Acids Research 21: 3329–30 (1993), Guldener, et al., Nucleic Acids Research 24: 2519–24 (1996)). Yeast overexpressing topoisomerase II was constructed by a PCR fragment directed promoter replacement of the topoisomerase II promoter with the yeast GPD promoter flanked upstream by the URA3 marker. All strains (except BY4705) bear the pleitropic drug sensitizing mutations erg6, pdr1, and pdr3 (Balzi, et al., Journal of Bioenergetics & Biomembranes 27: 71–6 (1995), Delaveau, et al, Molecular & General Genetics 244: 501–11 (1994), Gaber, et al., Molecular & Cellular Biology 9: 3447–56 (1989), Saunders, et al., Canadian Journal of Genetics & Cytology, 24: 493–503 (1982). Subik, et al, Current Genetics 10: 665–70 (1986)). The haploid yeast strain BY4705 (Brachmann, et al., Yeast 14: 115–32 (1998)) was used in the experiments described in FIG. 5. Plasmids expressing yeast or human topoisomerase I genes under the GAL promoter (Knab, et al., Journal of Biological Chemistry 268: 22322–30 (1993). Knab, et al., Journal of Biological Chemistry 270: 6141–8 (1995)) were transformed into BY4705 using standard procedures.
Yeast toxicity assays were performed essentially as follows: Exponentially growing cultures of the appropriate strains were diluted in synthetic complete media to a concentration of 7.4×10^4 cells/mL, and aliquots (135 μL) were transferred to each well of clear flat-bottomed 96 well plates. Compounds were added in duplicate or triplicate as 15 μL of the appropriate dilution in 5% DMSO. A 15 μL portion of 5% DMSO was added to control wells. […] Cell growth (OD660) in treated wells was plotted as a percentage of the growth in at least four averaged solvent control wells for the same strain. Camptothecin sodium salt (camptothecin Na) was the agent used in all yeast assays as standard.

[2] = molecular target: T1, Topo I (Saccharomyces cerevisiae, UniProt P04786); assay: Yeast toxicity in strains with or without Topo I (rad50 vs rad50 top1); type: cell-based; conditions: rad50 top1 vs rad50 strain
T1 construct: yeast strains that are DSB repair defective, with (rad50) or without Topo I (rad50, top1), and a wild type control (wt); endogenous in cells; host or cells: S. cerevisiae A364a background, rad50 (erg6 pdr1 pdr3), compared with rad50 top1
T1 sequence (P04786 1-769): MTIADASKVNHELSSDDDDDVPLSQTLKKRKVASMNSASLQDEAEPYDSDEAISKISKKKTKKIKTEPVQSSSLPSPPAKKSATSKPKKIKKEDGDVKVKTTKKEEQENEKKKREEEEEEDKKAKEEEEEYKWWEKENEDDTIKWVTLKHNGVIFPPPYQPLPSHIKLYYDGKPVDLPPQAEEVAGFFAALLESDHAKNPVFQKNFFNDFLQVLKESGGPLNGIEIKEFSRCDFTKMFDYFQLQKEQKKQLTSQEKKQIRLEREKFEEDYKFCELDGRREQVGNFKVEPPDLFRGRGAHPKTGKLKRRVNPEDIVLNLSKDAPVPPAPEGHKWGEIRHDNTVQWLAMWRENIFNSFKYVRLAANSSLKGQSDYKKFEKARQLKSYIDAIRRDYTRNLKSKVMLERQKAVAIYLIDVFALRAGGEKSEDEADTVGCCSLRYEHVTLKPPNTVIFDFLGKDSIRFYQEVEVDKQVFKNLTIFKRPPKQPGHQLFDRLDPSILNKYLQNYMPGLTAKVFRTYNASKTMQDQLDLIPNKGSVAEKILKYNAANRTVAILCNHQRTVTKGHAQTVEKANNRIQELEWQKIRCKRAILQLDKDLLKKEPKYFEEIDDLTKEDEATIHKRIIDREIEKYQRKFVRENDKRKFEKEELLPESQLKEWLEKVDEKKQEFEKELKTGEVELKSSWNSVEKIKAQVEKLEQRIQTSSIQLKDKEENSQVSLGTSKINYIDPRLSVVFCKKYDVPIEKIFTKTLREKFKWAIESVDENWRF
Description: as §1
Yeast toxicity assays were performed essentially as follows: Exponentially growing cultures of the appropriate strains were diluted in synthetic complete media to a concentration of 7.4×10^4 cells/mL, and aliquots (135 μL) were transferred to each well of clear flat-bottomed 96 well plates. Compounds were added in duplicate or triplicate as 15 μL of the appropriate dilution in 5% DMSO. A 15 μL portion of 5% DMSO was added to control wells. Assay plates were incubated at 30° C. for approximately seven generations growth in solvent control wells (as monitored by OD660, typically 21–24 hours), then the OD660 of the cultures was measured in a microplate reader (Bio-Tek). […]

[3] = relative growth (OD660) vs solvent control

Compound	toxicity in wild-type strains [1]	profile of selective toxicity: toxic to rad50 and rad52 strains, not toxic in rad14 or rad18 strains [1, 3]	effect of deletion of the TOP1 gene on toxicity [2]	influence of sensitizing mutations erg6 pdr1 and pdr3 on yeast sensitivity [1]	profile of selective toxicity: toxic to rad50 and rad52 strains, not toxic in rad14 or rad18 strains [1]
O=c1c(Cl)c(Cl)cnn1CCCl [compound IIa]	neither compounds Ia or IIa produce toxicity	fit the profile for selective toxicity	greatly reduced	–	–
O=C(CCl)Nc1ccc(C(=O)N/N=C/c2ccc(Cl)cc2)cc1 [compound Ia]	neither compounds Ia or IIa produce toxicity	fit the profile for selective toxicity	greatly reduced	strongly influenced	–
CC(=O)[C@]1(O)Cc2c(O)c3c(c(O)c2[C@@H](O[C@H]2C[C@H](N)[C@H](O)[C@H](C)O2)C1)C(=O)c1ccccc1C3=O [idarubicin, reference compound]	–	–	little effect	–	Agents with this profile include
